Numbered stars: 1 amine (or outer) side, 2 acyl side, 3 side chain; on linkers, the order of the positions; unused ones are H or OH. Bridge positions count the residues as written; N and C are the ends. Side chains are listed from the residue outwards. Peptide text beside a SMILES is read from it. * marks the point of attachment. C20 diacid = O=C(O)CCCCCCCCCCCCCCCCCCC(=O)*; γGlu = O=C(O)[C@H](CCC(=O)[*:2])N[*:1]
Assays:
[1] = ASSAY (III) ThT fibrillation assay for physical stability; assay type: physicochemical
How it was run: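 Formulations with 1 μM ThT, pH adjusted as required, incubated at 37 °C with 960 rpm orbital shaking; fluorescence (ex 444/em 485 nm) read every 20 min. Fibrillation reported as mean ThT fluorescence ± SD of 4–8 replicates at time points; polypeptide concentration measured by reverse-phase HPLC before and after, post-centrifugation.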

[2] = molecular target: T1, human amylin receptor (membranes from Amylin 3(a)/CRE-luc cells) (Homo sapiens, UniProt O60896+P30988); test: ASSAY (V) binding to the human amylin receptor (SPA, 125I-rat amylin); settings: for IC50: Table 4, read-out: hAmylin-R bind IC50;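 for all read-outs here: competition binding of cell membranes (35 ng/µL) mixed with SPA beads in 384-well plates at 40 µL total volume, read by scintillation counting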
T1 construct: expressed in transfected cells
T1 sequence (P30988 25-474): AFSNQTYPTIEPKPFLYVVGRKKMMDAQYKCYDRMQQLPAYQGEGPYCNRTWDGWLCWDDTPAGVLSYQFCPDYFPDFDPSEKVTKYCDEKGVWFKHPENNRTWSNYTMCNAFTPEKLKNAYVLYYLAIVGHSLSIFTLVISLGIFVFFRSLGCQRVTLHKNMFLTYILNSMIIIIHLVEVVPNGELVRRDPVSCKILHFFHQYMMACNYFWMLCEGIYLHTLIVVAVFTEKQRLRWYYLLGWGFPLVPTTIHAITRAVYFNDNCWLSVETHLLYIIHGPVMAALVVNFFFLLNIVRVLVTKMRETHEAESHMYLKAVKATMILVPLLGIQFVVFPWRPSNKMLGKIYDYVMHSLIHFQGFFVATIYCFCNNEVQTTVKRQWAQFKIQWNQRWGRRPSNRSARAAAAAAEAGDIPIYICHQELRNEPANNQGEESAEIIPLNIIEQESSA
T1 sequence (O60896 24-148 partner): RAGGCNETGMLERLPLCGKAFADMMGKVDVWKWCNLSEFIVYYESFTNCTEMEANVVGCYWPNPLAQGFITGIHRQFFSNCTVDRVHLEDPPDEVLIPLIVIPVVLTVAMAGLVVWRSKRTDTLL

rat calcitonin receptor = molecular target: T2, rat calcitonin receptor (Rattus norvegicus, UniProt P32214); test: ASSAY (VIII) binding to the rat calcitonin receptor; settings: Table 7, read-out: rCTR bind IC50
T2 construct: expressed in transfected cells; host or cells: BHK tk'ts 13 (transient, FuGENE 6), membranes
T2 sequence (P32214 25-479 isoform P32214-2 limits assumed): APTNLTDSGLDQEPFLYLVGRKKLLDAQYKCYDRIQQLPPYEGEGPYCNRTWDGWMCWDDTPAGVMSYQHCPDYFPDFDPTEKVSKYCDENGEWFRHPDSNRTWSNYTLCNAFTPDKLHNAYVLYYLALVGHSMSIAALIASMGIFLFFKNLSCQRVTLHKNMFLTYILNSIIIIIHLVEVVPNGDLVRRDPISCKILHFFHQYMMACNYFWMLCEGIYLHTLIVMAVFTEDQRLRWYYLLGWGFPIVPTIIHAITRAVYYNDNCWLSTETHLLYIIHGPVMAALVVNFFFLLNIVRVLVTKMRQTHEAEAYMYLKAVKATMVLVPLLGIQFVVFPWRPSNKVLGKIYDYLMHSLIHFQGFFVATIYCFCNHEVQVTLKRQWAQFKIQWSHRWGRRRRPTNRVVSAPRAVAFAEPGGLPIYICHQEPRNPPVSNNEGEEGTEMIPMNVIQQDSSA
How it was run: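 Membranes were prepared from BHK tk′ts 13 cells transiently transfected with rat calcitonin receptor. Cells were grown in DMEM with 10% FBS and harvested approximately 48 hours after transfection.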

[3] = Table 5, selectivity, hCTR bind IC50 / hAmylin-R bind IC50
[4] = Table 5a, selectivity, hCTR bind IC50 / hAmylin-R bind IC50
[5] = Table 5b, selectivity, hCTR bind IC50 / hAmylin-R bind IC50
[6] = Table 5c, selectivity, hCTR bind IC50 / hAmylin-R bind IC50
[7] = Table 7, human binding selectivity, included for comparison
[8] = Table 7a (preferred compounds), human binding selectivity, included for comparison
[9] = ratio of human calcitonin receptor binding IC50 to human amylin receptor binding IC50

Row | Structure (SMILES) | ThT pH 4.0 lag time (h) [1] | IC50 [2] | Ratio hCT/hAmylin binding [2, 3] | Ratio hCT/hAmylin binding [2, 4] | Ratio hCT/hAmylin binding [2, 5] | Ratio hCT/hAmylin binding [2, 6] | Ratio hCT/hAmylin binding [2, 7] | Ratio hCT/hAmylin binding [2, 8] | Ratio hCT/hAmylin binding [2, 9] | IC50 (rat calcitonin receptor)
1 | CC[C@H](C)[C@H](NC(=O)[C@H](C)NC(=O)CNC(=O)[C@H](Cc1ccccc1)NC(=O)[C@H](CC(N)=O)NC(=O)[C@@H]1CCCN1C(=O)[C@H](CO)NC(=O)[C@H](CO)NC(=O)[C@H](Cc1c[nH]cn1)NC(=O)[C@H](CCCNC(=N)N)NC(=O)[C@H](CC(C)C)NC(=O)[C@H](Cc1ccccc1)NC(=O)[C@H](CC(N)=O)NC(=O)[C@H](C)NC(=O)[C@H](CC(C)C)NC(=O)[C@H](CCCNC(=N)N)NC(=O)[C@H](CCC(N)=O)NC(=O)[C@@H](NC(=O)[C@H](C)NC(=O)[C@@H]1CSSC[C@H](NC(=O)[C@@H](N)CCCCNC(=O)CC[C@H](NC(=O)CCCCCCCCCCCCCCCCCCC(=O)O)C(=O)O)C(=O)N[C@@H](CC(N)=O)C(=O)N[C@@H]([C@@H](C)O)C(=O)N[C@@H](C)C(=O)N[C@@H]([C@@H](C)O)C(=O)N1)[C@@H](C)O)C(=O)N1CCC[C@H]1C(=O)N[C@@H](CO)C(=O)N[C@@H](CO)C(=O)N[C@H](C(=O)N[C@@H](CC(N)=O)C(=O)N[C@H](C(=O)NCC(=O)N[C@@H](CO)C(=O)N[C@@H](CC(N)=O)C(=O)N[C@H](C(=O)N[C@@H](Cc1ccc(O)cc1)C(N)=O)[C@@H](C)O)C(C)C)[C@@H](C)O [Example 48] | 25 h | 0.443 nM | 69.7 | 69.7 | 69.7 | 69.7 | 69.7 | 69.7 | 69.7 | 112 nM
2 | CC[C@H](C)[C@H](NC(=O)[C@H](C)NC(=O)CNC(=O)[C@H](Cc1ccccc1)NC(=O)[C@H](CC(N)=O)NC(=O)[C@@H]1CCCN1C(=O)[C@H](CO)NC(=O)[C@H](CO)NC(=O)[C@H](Cc1c[nH]cn1)NC(=O)[C@H](CCCNC(=N)N)NC(=O)[C@H](CC(C)C)NC(=O)[C@H](Cc1ccccc1)NC(=O)[C@H](CC(N)=O)NC(=O)[C@H](C)NC(=O)[C@H](CC(C)C)NC(=O)[C@H](CCCNC(=N)N)NC(=O)[C@H](CCC(N)=O)NC(=O)[C@@H](NC(=O)[C@H](C)NC(=O)[C@@H]1CSSC[C@H](NC(=O)[C@@H](N)CCCCNC(=O)COCCOCCNC(=O)CC[C@H](NC(=O)CCCCCCCCCCCCCCCCCCC(=O)O)C(=O)O)C(=O)N[C@@H](CC(N)=O)C(=O)N[C@@H]([C@@H](C)O)C(=O)N[C@@H](C)C(=O)N[C@@H]([C@@H](C)O)C(=O)N1)[C@@H](C)O)C(=O)N1CCC[C@H]1C(=O)N[C@@H](CO)C(=O)N[C@@H](CO)C(=O)N[C@H](C(=O)N1CCC[C@H]1C(=O)N[C@H](C(=O)NCC(=O)N[C@@H](CO)C(=O)N[C@@H](CC(N)=O)C(=O)N[C@H](C(=O)N[C@@H](Cc1ccc(O)cc1)C(N)=O)[C@@H](C)O)C(C)C)[C@@H](C)O [Example 49] | 8 h | – | 10.8 | 10.8 | – | – | 10.8 | 10.8 | 10.8 | 51.4 nM

Further lines, results first:

Row | ThT pH 4.0 lag time (h) [1] | IC50 [2] | Ratio hCT/hAmylin binding [2, 3] | Ratio hCT/hAmylin binding [2, 4] | Ratio hCT/hAmylin binding [2, 5] | Ratio hCT/hAmylin binding [2, 6] | Ratio hCT/hAmylin binding [2, 7] | Ratio hCT/hAmylin binding [2, 8] | Ratio hCT/hAmylin binding [2, 9] | IC50 (rat calcitonin receptor) | Structure (SMILES)
3 | 4 h | 0.076 nM | 34.7 | 34.7 | 34.7 | 34.7 | 34.7 | 34.7 | 34.7 | 7.6 nM | CC[C@H](C)[C@H](NC(=O)[C@H](C)NC(=O)CNC(=O)[C@H](Cc1ccccc1)NC(=O)[C@H](CC(N)=O)NC(=O)[C@@H]1CCCN1C(=O)[C@H](CO)NC(=O)[C@H](CO)NC(=O)[C@H](Cc1c[nH]cn1)NC(=O)[C@H](CCCNC(=N)N)NC(=O)[C@H](CC(C)C)NC(=O)[C@H](Cc1ccccc1)NC(=O)[C@H](CC(N)=O)NC(=O)[C@H](C)NC(=O)[C@H](CC(C)C)NC(=O)[C@H](CCCNC(=N)N)NC(=O)[C@H](CCC(N)=O)NC(=O)[C@@H](NC(=O)[C@H](C)NC(=O)[C@@H]1CSSC[C@H](NC(=O)[C@@H](N)CCCCNC(=O)COCCOCCNC(=O)CCCCCCCCCCCCCCCCCCC(=O)O)C(=O)N[C@@H](CC(N)=O)C(=O)N[C@@H]([C@@H](C)O)C(=O)N[C@@H](C)C(=O)N[C@@H]([C@@H](C)O)C(=O)N1)[C@@H](C)O)C(=O)N1CCC[C@H]1C(=O)N[C@@H](CO)C(=O)N[C@@H](CO)C(=O)N[C@H](C(=O)N[C@@H](CC(N)=O)C(=O)N[C@H](C(=O)NCC(=O)N[C@@H](CO)C(=O)N[C@@H](CC(N)=O)C(=O)N[C@H](C(=O)N[C@@H](Cc1ccc(O)cc1)C(N)=O)[C@@H](C)O)C(C)C)[C@@H](C)O [Example 43]
4 | 45 h | 0.275 nM | 17.7 | 17.7 | 17.7 | – | 17.7 | 17.7 | 17.7 | 19.7 nM | CC[C@H](C)[C@H](NC(=O)[C@H](C)NC(=O)CNC(=O)[C@H](Cc1ccccc1)NC(=O)[C@H](CC(N)=O)NC(=O)[C@@H]1CCCN1C(=O)[C@H](CO)NC(=O)[C@H](CO)NC(=O)[C@H](Cc1c[nH]cn1)NC(=O)[C@H](CCCNC(=N)N)NC(=O)[C@H](CC(C)C)NC(=O)[C@H](Cc1ccccc1)NC(=O)[C@H](CC(N)=O)NC(=O)[C@H](C)NC(=O)[C@H](CC(C)C)NC(=O)[C@H](CCCNC(=N)N)NC(=O)[C@H](CCC(N)=O)NC(=O)[C@@H](NC(=O)[C@H](C)NC(=O)[C@@H]1CSSC[C@H](NC(=O)[C@H](CCCNC(=N)N)NC(=O)[C@@H](N)CCCCNC(=O)CC[C@H](NC(=O)CCCCCCCCCCCCCCCCCCC(=O)O)C(=O)O)C(=O)N[C@@H](CC(N)=O)C(=O)N[C@@H]([C@@H](C)O)C(=O)N[C@@H](C)C(=O)N[C@@H]([C@@H](C)O)C(=O)N1)[C@@H](C)O)C(=O)N1CCC[C@H]1C(=O)N[C@@H](CO)C(=O)N[C@@H](CO)C(=O)N[C@H](C(=O)N[C@@H](CC(N)=O)C(=O)N[C@H](C(=O)NCC(=O)N[C@@H](CO)C(=O)N[C@@H](Cc1c[nH]cn1)C(=O)N[C@H](C(=O)N[C@@H](Cc1ccc(O)cc1)C(N)=O)[C@@H](C)O)C(C)C)[C@@H](C)O [Example 44] (H-K([γGlu-C20 diacid])RCNTATCATQRLANFLRHSSPNFGAIPSSTNVGSHTY-NH2; disulfide 3-8)
5 | 24 h | – | 48.9 | 48.9 | 48.9 | 48.9 | 48.9 | 48.9 | 48.9 | 46.8 nM | CC[C@H](C)[C@H](NC(=O)[C@H](C)NC(=O)CNC(=O)[C@H](Cc1ccccc1)NC(=O)[C@H](CC(N)=O)NC(=O)[C@@H]1CCCN1C(=O)[C@H](CO)NC(=O)[C@H](CO)NC(=O)[C@H](Cc1c[nH]cn1)NC(=O)[C@H](CCCNC(=N)N)NC(=O)[C@H](CC(C)C)NC(=O)[C@H](Cc1ccccc1)NC(=O)[C@H](CC(N)=O)NC(=O)[C@H](C)NC(=O)[C@H](CC(C)C)NC(=O)[C@H](CCCNC(=N)N)NC(=O)[C@H](CCC(N)=O)NC(=O)[C@@H](NC(=O)[C@H](C)NC(=O)[C@@H]1CSSC[C@H](NC(=O)[C@H](CCCNC(=N)N)NC(=O)CNC(=O)CC[C@H](NC(=O)CCCCCCCCCCCCCCCCCCC(=O)O)C(=O)O)C(=O)N[C@@H](CC(N)=O)C(=O)N[C@@H]([C@@H](C)O)C(=O)N[C@@H](C)C(=O)N[C@@H]([C@@H](C)O)C(=O)N1)[C@@H](C)O)C(=O)N1CCC[C@H]1C(=O)N[C@@H](CO)C(=O)N[C@@H](CO)C(=O)N[C@H](C(=O)N[C@@H](CC(N)=O)C(=O)N[C@H](C(=O)NCC(=O)N[C@@H](CO)C(=O)N[C@@H](CC(N)=O)C(=O)N[C@H](C(=O)N[C@@H](Cc1ccc(O)cc1)C(N)=O)[C@@H](C)O)C(C)C)[C@@H](C)O [Example 46] ({C20 diacid-γGlu}-GRCNTATCATQRLANFLRHSSPNFGAIPSSTNVGSNTY-NH2; disulfide 3-8 (inferred))

Reference: US9023789B2, “Amylin analogs and pharmaceutical compositions thereof” (Novo Nordisk A/S, priority 2012, dated 2015)
